The record followed here is ChEMBL document CHEMBL6182920, “The Discovery of C7-Substituted Norbornyl Bisamides as RXFP1 Small Molecule Agonists” (J Med Chem, 2025).

Values after ≈ are worked out from the molar mass of the structure shown. Some results are limits rather than exact numbers.

A short description of data set [1]: Microsomal stability in rat liver microsomes assessed as compound remaining measured after 30 mins. The conditions noted are these: read-out: Stability. The class given is ADME, Microsome.
Data set [2] concerns the target T1, Relaxin receptor 1 (Homo sapiens, UniProt Q9HBX9).
T1 sequence (Q9HBX9 whole entry): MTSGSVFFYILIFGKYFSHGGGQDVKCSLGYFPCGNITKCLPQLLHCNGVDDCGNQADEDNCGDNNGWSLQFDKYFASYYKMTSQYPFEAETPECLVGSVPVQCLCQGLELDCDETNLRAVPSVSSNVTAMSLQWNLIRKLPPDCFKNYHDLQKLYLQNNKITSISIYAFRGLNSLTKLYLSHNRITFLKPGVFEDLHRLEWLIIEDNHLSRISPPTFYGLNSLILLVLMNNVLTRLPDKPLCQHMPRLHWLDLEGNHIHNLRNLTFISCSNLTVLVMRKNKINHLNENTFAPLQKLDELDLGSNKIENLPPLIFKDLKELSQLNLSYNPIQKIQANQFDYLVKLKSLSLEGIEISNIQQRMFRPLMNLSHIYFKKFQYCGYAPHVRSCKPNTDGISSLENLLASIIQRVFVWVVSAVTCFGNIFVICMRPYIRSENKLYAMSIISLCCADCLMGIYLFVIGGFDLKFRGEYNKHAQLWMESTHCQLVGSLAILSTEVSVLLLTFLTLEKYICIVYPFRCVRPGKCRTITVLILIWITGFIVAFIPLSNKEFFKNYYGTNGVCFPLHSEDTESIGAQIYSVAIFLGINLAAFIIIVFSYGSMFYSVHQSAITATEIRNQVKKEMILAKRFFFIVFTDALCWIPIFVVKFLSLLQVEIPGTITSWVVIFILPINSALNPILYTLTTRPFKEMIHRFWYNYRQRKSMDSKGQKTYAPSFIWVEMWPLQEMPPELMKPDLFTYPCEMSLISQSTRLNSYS
Kind of data set: Agonist activity at human RXFP1 stably expressed in HEK293 cells assessed as intracellular cAMP accumulation incubated for 30 mins by HTRF assay.

For data set [3], the target named is T2, Relaxin receptor 1 (Mus musculus, UniProt Q6R6I7).
T2 sequence (Q6R6I7 whole entry): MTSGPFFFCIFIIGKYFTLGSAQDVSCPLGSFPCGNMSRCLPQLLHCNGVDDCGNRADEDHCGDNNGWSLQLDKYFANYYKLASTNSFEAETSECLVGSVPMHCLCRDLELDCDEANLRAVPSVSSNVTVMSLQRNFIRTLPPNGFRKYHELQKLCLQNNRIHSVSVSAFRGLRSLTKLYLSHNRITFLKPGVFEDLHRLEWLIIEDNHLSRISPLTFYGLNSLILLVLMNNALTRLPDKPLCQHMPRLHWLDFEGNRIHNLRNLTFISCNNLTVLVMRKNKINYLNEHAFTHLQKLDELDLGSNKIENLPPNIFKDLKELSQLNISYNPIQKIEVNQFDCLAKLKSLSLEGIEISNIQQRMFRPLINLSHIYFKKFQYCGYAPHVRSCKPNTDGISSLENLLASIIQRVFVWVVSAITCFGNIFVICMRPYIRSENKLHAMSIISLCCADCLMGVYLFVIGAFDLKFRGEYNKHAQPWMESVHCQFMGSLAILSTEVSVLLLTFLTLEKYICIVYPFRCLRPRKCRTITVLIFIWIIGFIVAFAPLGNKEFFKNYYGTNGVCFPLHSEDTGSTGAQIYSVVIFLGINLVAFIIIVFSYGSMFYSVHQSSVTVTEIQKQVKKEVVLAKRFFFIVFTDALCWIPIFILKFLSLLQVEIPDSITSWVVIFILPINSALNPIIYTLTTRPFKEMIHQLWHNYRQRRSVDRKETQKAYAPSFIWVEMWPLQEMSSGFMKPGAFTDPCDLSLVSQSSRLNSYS
Kind of data set: Agonist activity at mouse RXFP1 stably expressed in HEK293 cells assessed as intracellular cAMP accumulation incubated for 30 mins by HTRF assay. The class given is functional, cell-based.

Data set [4] has as its target T3, Relaxin receptor 1 (Rattus norvegicus, UniProt Q6R6I6).
T3 sequence (Q6R6I6 whole entry): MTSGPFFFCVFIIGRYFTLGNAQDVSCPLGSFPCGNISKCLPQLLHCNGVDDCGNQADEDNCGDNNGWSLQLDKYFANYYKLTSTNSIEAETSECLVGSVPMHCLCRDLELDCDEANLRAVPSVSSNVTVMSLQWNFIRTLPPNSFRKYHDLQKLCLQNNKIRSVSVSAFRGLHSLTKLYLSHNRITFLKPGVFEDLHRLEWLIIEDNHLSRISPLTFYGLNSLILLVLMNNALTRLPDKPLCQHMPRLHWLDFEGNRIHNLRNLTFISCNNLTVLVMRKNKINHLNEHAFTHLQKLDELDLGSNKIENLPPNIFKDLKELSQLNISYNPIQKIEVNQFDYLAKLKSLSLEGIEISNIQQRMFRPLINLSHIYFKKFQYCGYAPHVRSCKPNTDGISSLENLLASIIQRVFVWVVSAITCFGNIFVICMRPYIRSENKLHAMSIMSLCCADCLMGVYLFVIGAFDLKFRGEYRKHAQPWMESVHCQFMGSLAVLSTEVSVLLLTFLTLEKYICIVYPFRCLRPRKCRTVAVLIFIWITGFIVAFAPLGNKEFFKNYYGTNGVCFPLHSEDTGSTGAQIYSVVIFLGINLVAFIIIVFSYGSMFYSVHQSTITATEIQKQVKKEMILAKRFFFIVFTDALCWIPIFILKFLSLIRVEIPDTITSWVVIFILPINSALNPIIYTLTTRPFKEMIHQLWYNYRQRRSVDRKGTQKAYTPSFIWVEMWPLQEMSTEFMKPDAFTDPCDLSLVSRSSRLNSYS
Kind of data set: Agonist activity at rat RXFP1 stably expressed in HEK293 cells assessed as intracellular cAMP accumulation incubated for 30 mins by HTRF assay. The class given is cell-based.

A short description of data set [5]: Microsomal stability in human liver microsomes assessed as compound remaining measured after 30 mins. The following applies: read-out: Stability. The class given is ADME, Microsome.
A short description of data set [6]: Microsomal stability in mouse liver microsomes assessed as compound remaining measured after 30 mins. The class given is ADME, Microsome. The conditions noted are these: read-out: Stability.
The nature of data set [7]: Thermodynamic aqueous solubility of compound in phosphate buffer at pH 7.4 by reversed-phase ultrahigh pressure liquid chromatography. The class given is physicochemical. The following applies: for solubility thermodynamic: phosphate buffer, read-out: Therm_solubility.

Consider `CNC(=O)OC(C(=O)O)c1ccc(F)c(-c2ccc(OC)c(C(=O)N[C@H]3[C@@H](C(=O)Nc4ccc(F)c(C(F)(F)F)c4)[C@H]4CC[C@@H]3/C4=C\c3cnoc3)c2)c1` (some centres undefined), for which the remaining at 0.5 h in data set [1], in data set [5] and in data set [6] was > 90% each time. For the same compound, the half-maximal effective concentration (EC50) in data set [2] stood at 0.008 µM; in data set [3] it was 0.11 µM; in data set [4], 0.14 µM.

For `COC(=O)c1ccc(F)c(-c2ccc(OC)c(C(=O)N[C@H]3[C@@H](C(=O)Nc4ccc(F)c(C(F)(F)F)c4)[C@H]4CC[C@@H]3C4=C(C)C)c2)c1`, in data set [3], the 50% effective concentration (EC50) was > 10 µM.

With `COc1ccc(-c2cc(C(=O)O)ccc2OC)cc1C(=O)N[C@H]1[C@@H](C(=O)Nc2ccc(F)c(C(F)(F)F)c2)[C@H]2CC[C@@H]1C2=C(C)C`, the 50% effective concentration (EC50) in data set [3] came to 4.6 µM.

Take `CNC(=O)OC(C(=O)O)c1ccc(F)c(-c2ccc(OC)c(C(=O)N[C@H]3[C@@H](C(=O)Nc4ccc(F)c(C(F)(F)F)c4)[C@H]4CC[C@@H]3/C4=C\C3CC3)c2)c1` (stereo in doubt; 40): the remaining at 0.5 h in data set [1], in data set [5] and in data set [6] was > 90% throughout. For the same compound, the results for the concentration for a half-maximal effect (EC50) in data set [2], in data set [3] and in data set [4] were 0.006 µM, 0.39 µM and 0.59 µM, respectively. The Therm_solubility in data set [7] (buffer) was found to be 250 µg/mL.

In the case of `COc1ccc(-c2cc(C(=O)O)ccc2F)cc1C(=O)N[C@H]1[C@@H](C(=O)Nc2ccc(F)c(C(F)(F)F)c2)[C@H]2CC[C@@H]1/C2=C\c1ccccc1`, the remaining at 0.5 h in data set [1], in data set [5] and in data set [6] was > 90% each time. The EC50 in data set [2] is 0.016 µM; in data set [3], 1.3 µM.

`COc1cc(F)c(F)cc1C(=O)N[C@H]1[C@@H](C(=O)Nc2ccc(F)c(C(F)(F)F)c2)[C@H]2CC[C@@H]1/C2=C\c1c(Cl)cccc1Cl`: the concentration giving a half-maximal response (EC50) in data set [2] worked out at 3.7 µM.

With `COc1ccc(-c2cc(C(=O)O)ccc2F)cc1C(=O)N[C@H]1[C@@H](C(=O)Nc2ccc(F)c(C(F)(F)F)c2)[C@H]2CC[C@@H]1/C2=C\C1CC1`, the remaining at 0.5 h in data set [1], in data set [5] and in data set [6] was > 90% throughout. Besides, in data set [3], the half-maximal effective concentration (EC50) came to 0.14 µM.

As to `COc1cc(F)c(F)cc1C(=O)N[C@H]1[C@@H](C(=O)Nc2ccc(F)c(C(F)(F)F)c2)[C@@H]2CC[C@@H]1C2C(C)C` (stereo in doubt), the EC50 in data set [2] turned out to be 3.5 µM.

`COc1ccc(-c2cc(C(=O)O)ccc2F)cc1C(=O)N[C@H]1[C@@H](C(=O)NC2CCCC2)[C@H]2CC[C@@H]1/C2=C\C1CC1`: the concentration giving a half-maximal response (EC50) in data set [3] is 1.3 µM.

Take `COc1ccc(-c2cc(CC(=O)O)ccc2F)cc1C(=O)N[C@H]1[C@@H](C(=O)Nc2ccc(F)c(C(F)(F)F)c2)[C@H]2CC[C@@H]1/C2=C\c1cnoc1`: the remaining at 0.5 h in data set [1], in data set [5] and in data set [6] was > 90% throughout. Moreover, the EC50 in data set [2] worked out at 0.011 µM; in data set [3] it was 0.74 µM; in data set [4] it was 1.2 µM. In addition, in data set [7], the solubility thermodynamic is 130 µg/mL (≈ 191 µM).

In the case of `COc1ccc(-c2ccncc2)cc1C(=O)N[C@H]1[C@@H](C(=O)Nc2ccc(F)c(C(F)(F)F)c2)[C@H]2CC[C@@H]1C2=C(C)C`, the concentration for a half-maximal effect (EC50) in data set [3] is > 20 µM.

Consider `COc1ccc(-c2cc(C(=O)NS(C)(=O)=O)ccc2F)cc1C(=O)N[C@H]1[C@@H](C(=O)Nc2ccc(F)c(C(F)(F)F)c2)[C@H]2CC[C@@H]1/C2=C\c1cnoc1`, for which the remaining at 0.5 h in data set [1], in data set [5] and in data set [6] was > 90% throughout. For the same compound, the EC50 in data set [2] was determined as 0.022 µM; in data set [3] it was 0.56 µM; in data set [4], 0.89 µM. Further, the solubility thermodynamic in data set [7] is < 1 µg/mL.

Regarding `COc1cc(F)c(F)cc1C(=O)N[C@H]1[C@@H](C(=O)Nc2ccc(F)c(C(F)(F)F)c2)[C@H]2CC[C@@H]1/C2=C1/C=Cc2ccccc21`, in data set [2], the concentration for a half-maximal effect (EC50) turned out to be 0.81 µM.

In the case of `COc1ccc(-c2cccnc2)cc1C(=O)N[C@H]1[C@@H](C(=O)Nc2ccc(F)c(C(F)(F)F)c2)[C@H]2CC[C@@H]1C2=C(C)C`, the EC50 in data set [3] is > 10 µM.

`COc1ccc(-c2cc(O)ccc2F)cc1C(=O)N[C@H]1[C@@H](C(=O)Nc2ccc(F)c(C(F)(F)F)c2)[C@H]2CC[C@@H]1/C2=C\c1cnoc1`: the remaining at 0.5 h in data set [1], in data set [5] and in data set [6] was > 90% throughout. The concentration giving a half-maximal response (EC50) in data set [3] came to 3 µM.

Regarding `COc1ccc(-c2cncnc2)cc1C(=O)N[C@H]1[C@@H](C(=O)Nc2ccc(F)c(C(F)(F)F)c2)[C@H]2CC[C@@H]1C2=C(C)C`, the half-maximal effective concentration (EC50) in data set [3] was > 10 µM.

Consider `COc1ccc(-c2cc(C(N)=O)ccc2F)cc1C(=O)N[C@H]1[C@@H](C(=O)Nc2ccc(F)c(C(F)(F)F)c2)[C@H]2CC[C@@H]1/C2=C\c1cnoc1`, for which the remaining at 0.5 h in data set [1], in data set [5] and in data set [6] was > 90% each time. Besides, the half-maximal effective concentration (EC50) in data set [3] was 0.95 µM.

On to `COc1ccc(-c2ccccc2C(=O)O)cc1C(=O)N[C@H]1[C@@H](C(=O)Nc2ccc(F)c(C(F)(F)F)c2)[C@H]2CC[C@@H]1C2=C(C)C`, for which, in data set [3], the half-maximal effective concentration (EC50) is > 20 µM.

Take `COc1ccc(-c2cc(C(=O)O)ccc2C)cc1C(=O)N[C@H]1[C@@H](C(=O)Nc2ccc(F)c(C(F)(F)F)c2)[C@H]2CC[C@@H]1C2=C(C)C`: the EC50 in data set [3] worked out at 1.7 µM.

Regarding `COc1ccc(-c2cc(C(=O)O)ccc2F)cc1C(=O)N[C@H]1[C@@H](C(=O)Nc2ccc(F)c(C(F)(F)F)c2)[C@H]2CC[C@@H]1C2=C(C)C`, the EC50 in data set [3] came to 0.94 µM.

Regarding `COc1ccc(-c2cccc(C(=O)O)c2)cc1C(=O)N[C@H]1[C@@H](C(=O)Nc2ccc(F)c(C(F)(F)F)c2)[C@H]2CC[C@@H]1C2=C(C)C`, the EC50 in data set [3] turned out to be 6.3 µM.

Regarding `COc1cc(F)c(F)cc1C(=O)N[C@H]1[C@@H](C(=O)Nc2ccc(F)c(C(F)(F)F)c2)[C@@H]2CC[C@@H]1C2C(C)C` (single isomer, unassigned; isomer 2), the concentration for a half-maximal effect (EC50) in data set [2] is 14 µM.

For `COc1ccc(-c2cc(C(=O)O)ccc2F)cc1C(=O)N[C@H]1[C@@H](C(=O)NCc2ccccc2C(F)(F)F)[C@H]2CC[C@@H]1/C2=C\C1CC1`, the concentration for a half-maximal effect (EC50) in data set [3] turned out to be 2.2 µM.
